# Source: publication PMC8286840, “Identifying SARS-CoV-2 antiviral compounds by screening for small molecule inhibitors of Nsp3 papain-like protease” (Biochemical Journal, 2021)
# Counter-ions that a name gives are not always drawn. Like-named read-outs stand apart in the source and are kept apart here. Where a SMILES comes first, the peptide text is derived from it.
# How the values were obtained:
# [1] = target: T1, SARS-CoV-2 PLpro (nsp3 1564–1878) (Severe acute respiratory syndrome coronavirus 2, UniProt P0DTD1); test: biochemical; design: FRET-quenched peptide (Pro3) cleavage by PLpro, 10 min pre-incubation, slope over 20 min, normalised to no-compound control; details: read-out: % of control remaining
# [2] = target: T1, SARS-CoV-2 PLpro (nsp3 1564–1878); test: biochemical; design: FRET-quenched peptide (Pro3) cleavage by PLpro, 10 min pre-incubation, slope over 20 min, normalised to no-compound control; details: read-out: % of control remaining; remark: listed apart in the source
smiles,measurement,setting,value
C[C@@H](O)[C@@H]1NC(=O)[C@H](CCCCN)NC(=O)[C@@H](Cc2c[nH]c3ccccc23)NC(=O)[C@H](Cc2ccccc2)NC(=O)[C@@H](NC(=O)[C@H](N)Cc2ccccc2)CSSC[C@@H](C(=O)N[C@H](CO)[C@@H](C)O)NC1=O [Octreotide (acetate)],remaining activity at 1.25 µM,"[1]; Well no.=6556, low concentration screen",92.6%
same,remaining activity at 1.25 µM,"[1]; Well no.=7396, low concentration screen",97.5%
same,remaining activity at 3.75 µM,"[2]; Well no.=6556, high concentration screen",94.1%
same,remaining activity at 3.75 µM,"[2]; Well no.=7396, high concentration screen",93.2%
C[C@@H](O)[C@@H]1NC(=O)[C@H](CCCCN)NC(=O)[C@@H](Cc2c[nH]c3ccccc23)NC(=O)[C@H](Cc2ccccc2)NC(=O)[C@@H](NC(=O)[C@H](N)Cc2ccccc2)CSSC[C@@H](C(=O)N[C@H](CO)[C@@H](C)O)NC1=O [Octreotide],remaining activity at 1.25 µM,"[1]; Well no.=1977, low concentration screen",103%
same,remaining activity at 3.75 µM,"[2]; Well no.=1977, high concentration screen",107%
CC(C)(F)C[C@H](N[C@@H](c1ccc(-c2ccc(S(C)(=O)=O)cc2)cc1)C(F)(F)F)C(=O)NC1(C#N)CC1 [Odanacatib (MK-0822)],remaining activity at 1.25 µM,"[1]; Well no.=8836, low concentration screen",88.7%
same,remaining activity at 3.75 µM,"[2]; Well no.=8836, high concentration screen",92.8%
CC1COc2c(N3CCN(C)CC3)c(F)cc3c(=O)c(C(=O)O)cn1c23 (stereo not shown) [Ofloxacin],remaining activity at 1.25 µM,"[1]; Well no.=898, low concentration screen",106%
same,remaining activity at 1.25 µM,"[1]; Well no.=2047, low concentration screen",104%
same,remaining activity at 3.75 µM,"[2]; Well no.=898, high concentration screen",105%
same,remaining activity at 3.75 µM,"[2]; Well no.=2047, high concentration screen",104%
N[C@@H](CCC(=O)O)C(=O)N[C@@H](Cc1c[nH]c2ccccc12)C(=O)O [Oglufanide] (H-Glu-Trp-OH),remaining activity at 1.25 µM,"[1]; Well no.=8604, low concentration screen",107%
same,remaining activity at 3.75 µM,"[2]; Well no.=8604, high concentration screen",101%
Cc1cc2c(s1)Nc1ccccc1N=C2N1CCN(C)CC1 [Olanzapine],remaining activity at 1.25 µM,"[1]; Well no.=1828, low concentration screen",93.3%
same,remaining activity at 1.25 µM,"[1]; Well no.=8193, low concentration screen",106%
same,remaining activity at 3.75 µM,"[2]; Well no.=1828, high concentration screen",95.2%
same,remaining activity at 3.75 µM,"[2]; Well no.=8193, high concentration screen",111%
CC1(C)CC[C@]2(C(=O)O)CC[C@]3(C)C(=CC[C@@H]4[C@@]5(C)CC[C@H](O)C(C)(C)[C@@H]5CC[C@]43C)[C@@H]2C1 [Oleanolic acid],remaining activity at 1.25 µM,"[1]; Well no.=3448, low concentration screen",96.1%
same,remaining activity at 1.25 µM,"[1]; Well no.=6443, low concentration screen",95.4%
same,remaining activity at 3.75 µM,"[2]; Well no.=3448, high concentration screen",91.6%
same,remaining activity at 3.75 µM,"[2]; Well no.=6443, high concentration screen",96.8%
CCCCCCCC/C=C\CCCCCCCC(=O)O [Oleic Acid],remaining activity at 1.25 µM,"[1]; Well no.=848, low concentration screen",102%
same,remaining activity at 3.75 µM,"[2]; Well no.=848, high concentration screen",101%
same,remaining activity at 3.75 µM,"[2]; Well no.=7347, high concentration screen",104%
CCCCCCCC/C=C\CCCCCCCC(=O)NCCc1ccc(O)c(O)c1 [Oleoyl dopamine],remaining activity at 1.25 µM,"[1]; Well no.=4539, low concentration screen",95.5%
same,remaining activity at 3.75 µM,"[2]; Well no.=4539, high concentration screen",100%
CC[C@@H]1/C=C/C=C/C[C@H](C)[C@H](O)[C@](C)(O)C(=O)[C@H](C)[C@@H](O)[C@H](C)C(=O)[C@H](C)[C@@H](O)[C@H](C)/C=C/C(=O)O[C@H]2[C@@H](C)[C@@H](CC1)O[C@@]1(CC[C@@H](C)[C@@H](C[C@H](C)O)O1)[C@@H]2C [Oligomycin A],remaining activity at 1.25 µM,"[1]; Well no.=850, low concentration screen",105%
same,remaining activity at 1.25 µM,"[1]; Well no.=3423, low concentration screen",98.1%
same,remaining activity at 3.75 µM,"[2]; Well no.=850, high concentration screen",103%
same,remaining activity at 3.75 µM,"[2]; Well no.=3423, high concentration screen",96.5%
CCCc1nc(C(C)(C)O)c(C(=O)OCc2oc(=O)oc2C)n1Cc1ccc(-c2ccccc2-c2nnn[nH]2)cc1 [Olmesartan (medoxomil)],remaining activity at 1.25 µM,"[1]; Well no.=7579, low concentration screen",98.2%
same,remaining activity at 3.75 µM,"[2]; Well no.=7579, high concentration screen",92.2%
CCCc1nc(C(C)(C)O)c(C(=O)O)n1Cc1ccc(-c2ccccc2-c2nnn[nH]2)cc1 [Olmesartan],remaining activity at 1.25 µM,"[1]; Well no.=1794, low concentration screen",94.8%
same,remaining activity at 1.25 µM,"[1]; Well no.=7669, low concentration screen",100%
same,remaining activity at 3.75 µM,"[2]; Well no.=1794, high concentration screen",95.4%
same,remaining activity at 3.75 µM,"[2]; Well no.=7669, high concentration screen",99%
COc1ccc2c(c1OCc1ccccc1)C[C@@H](C(=O)O)N(C(=O)C(c1ccccc1)c1ccccc1)C2 [Olodanrigan],remaining activity at 1.25 µM,"[1]; Well no.=8122, low concentration screen",100%
same,remaining activity at 3.75 µM,"[2]; Well no.=8122, high concentration screen",99.4%
Cn1cnc2c(NCc3ccccc3)nc(NCCO)nc21 [Olomoucine - 6-(Benzylamino)-2-(2-hydroxyethylamino)-9-methylpurine],remaining activity at 1.25 µM,"[1]; Well no.=2382, low concentration screen",101%
same,remaining activity at 3.75 µM,"[2]; Well no.=2382, high concentration screen",102%
CC[C@H](CO)Nc1nc(NCc2ccccc2O)c2ncn(C(C)C)c2n1 [Olomoucine II],remaining activity at 1.25 µM,"[1]; Well no.=2523, low concentration screen",99.8%
same,remaining activity at 3.75 µM,"[2]; Well no.=2523, high concentration screen",102%
Cn1cnc2c(NCc3ccccc3)nc(NCCO)nc21 [Olomoucine],remaining activity at 1.25 µM,"[1]; Well no.=800, low concentration screen",96.5%
same,remaining activity at 3.75 µM,"[2]; Well no.=800, high concentration screen",98.3%
CN(C)CC/C=C1/c2ccccc2COc2ccc(CC(=O)O)cc21 [Olopatadine (hydrochloride)],remaining activity at 1.25 µM,"[1]; Well no.=8201, low concentration screen",104%
same,remaining activity at 3.75 µM,"[2]; Well no.=8201, high concentration screen",102%
O=C(O)c1cc(/N=N/c2ccc(O)c(C(=O)O)c2)ccc1O [Olsalazine (Disodium)],remaining activity at 1.25 µM,"[1]; Well no.=7496, low concentration screen",93.9%
same,remaining activity at 3.75 µM,"[2]; Well no.=7496, high concentration screen",92.2%
O=C(O)c1cc(/N=N/c2ccc(O)c(C(=O)O)c2)ccc1O [Olsalazine Sodium],remaining activity at 1.25 µM,"[1]; Well no.=4688, low concentration screen",101%
same,remaining activity at 3.75 µM,"[2]; Well no.=4688, high concentration screen",97.9%
Cc1c(-c2cnccn2)ssc1=S [Oltipraz],remaining activity at 1.25 µM,"[1]; Well no.=2049, low concentration screen",109%
same,remaining activity at 3.75 µM,"[2]; Well no.=2049, high concentration screen",112%
CCCCCCCC/C=C\CCCCCCCC(=O)NCc1ccc(O)c(OC)c1 [Olvanil],remaining activity at 1.25 µM,"[1]; Well no.=5771, low concentration screen",94.2%
same,remaining activity at 3.75 µM,"[2]; Well no.=5771, high concentration screen",90%
O=C(N[C@H]1CCS[C@H]2CCC[C@@H](C(=O)O)N2C1=O)[C@@H](S)Cc1ccccc1 [Omapatrilat],remaining activity at 1.25 µM,"[1]; Well no.=8466, low concentration screen",99.9%
same,remaining activity at 3.75 µM,"[2]; Well no.=8466, high concentration screen",95%
CS(=O)(=O)n1cc2c(n1)CN([C@H]1CO[C@H](c3cc(F)ccc3F)[C@@H](N)C1)C2 [Omarigliptin (MK-3102)],remaining activity at 1.25 µM,"[1]; Well no.=8824, low concentration screen",98.1%
same,remaining activity at 3.75 µM,"[2]; Well no.=8824, high concentration screen",96.5%
COc1ccc2[nH]c([S+]([O-])Cc3ncc(C)c(OC)c3C)nc2c1 (stereo not shown) [Omeprazole],remaining activity at 1.25 µM,"[1]; Well no.=2051, low concentration screen",101%
same,remaining activity at 3.75 µM,"[2]; Well no.=2051, high concentration screen",101%
O=Cc1cn(Cc2ccc(Cl)cc2)c2ccccc12 [Oncrasin-1],remaining activity at 1.25 µM,[1],95.2%
same,remaining activity at 3.75 µM,[2],101%
Cc1nccn1CC1CCc2c(c3ccccc3n2C)C1=O (stereo not shown) [Ondansetron],remaining activity at 1.25 µM,"[1]; Well no.=2104, low concentration screen",102%
same,remaining activity at 3.75 µM,"[2]; Well no.=2104, high concentration screen",102%
OCCN1CCN(CCCN2c3ccccc3C=Cc3ccccc32)CC1 [Opipramol dihydrochloride],remaining activity at 1.25 µM,"[1]; Well no.=5510, low concentration screen",97.5%
same,remaining activity at 3.75 µM,"[2]; Well no.=5510, high concentration screen",101%
COC[C@H](NC(=O)c1cnc(C)s1)C(=O)N[C@@H](COC)C(=O)N[C@@H](Cc1ccccc1)C(=O)[C@@]1(C)CO1 [Oprozomib (ONX 0912)],remaining activity at 1.25 µM,"[1]; Well no.=4976, low concentration screen",90.1%
same,remaining activity at 3.75 µM,"[2]; Well no.=4976, high concentration screen",89.5%
COc1ccc(-c2cccc(C(=O)N(C)C)c2)cc1S(=O)(=O)Nc1cccc(NCCNC(=O)c2cccc(C)c2)c1 [Orexin 2 Receptor Agonist],remaining activity at 1.25 µM,"[1]; Well no.=6951, low concentration screen",105%
same,remaining activity at 3.75 µM,"[2]; Well no.=6951, high concentration screen",103%
CCc1c(C(=O)NCCc2ccc(N3CCCCC3)cc2)[nH]c2ccc(Cl)cc12 [Org 27569],remaining activity at 1.25 µM,"[1]; Well no.=6238, low concentration screen",103%
same,remaining activity at 3.75 µM,"[2]; Well no.=6238, high concentration screen",105%
